Assay results as given in patent EP4711366A1, “PYRIMIDO MACROHETEROCYCLIC COMPOUND AS WEE1-YES DUAL-TARGET INHIBITOR AND USE THEREOF” (Mindrank AI Ltd., priority 2023, dated 2024).
Values after ≈ are worked out from the molar mass of the structure shown.

How the values were obtained:
[1] = Solid-state stability study of polymorphs; assay type: physicochemical; settings: for Initial purity (%): HPLC purity before storage
[2] = Equilibrium solubility study of polymorphs in different vehicles; assay type: physicochemical; settings: 37±2 °C, suspension ~10 mg/mL; for Equilibrium solubility: 24 h, 1440 min, in mg/mL (unit assumed)
Method: The equilibrium solubility of the crystal forms A, B, C, and D of compound (IE) was tested in water (H2O), fasted state simulated gastric fluid (FaSSGF), fasted state simulated intestinal fluid (FaSSIF), and fed state simulated intestinal fluid (FeSSIF). In the test, the solids were suspended in corresponding buffers to formulate suspensions (~10 mg/mL) and mixed at 37±2 °C. After 24 h, samples of the suspensions were taken. The supernatant was filtered, and the concentration was determined.

[3] = test system: Human ovarian cancer OVCAR-3 cells; experiment: In vivo efficacy study against OVCAR-3 tumors (subcutaneous tumor-bearing model); set-up: species or system BALB/c nude mice; settings: 80mg/kg, PO, QD×28
Method: Human ovarian cancer OVCAR-3 cells were subcultured and expanded in an RPMI-1640 culture medium containing 20% FBS and 0.01 mg/mL bovine insulin. BALB/c nude mice aged 6-8 weeks were taken and each subcutaneously injected with 5 × 10^6 cells to establish a tumor-bearing model. The tumor volume was monitored, and when the tumor volume reached about 150 mm^3, the animals were randomized into 5 groups according to body weight and tumor volume. The animals were given, by oral gavage, the vehicle or compounds to be tested (ZN-c3 and IE) once daily for a total of 28 days. During the period of administration, the tumor volume and the animal body weight were measured twice a week, and the animals' states were observed daily. At the endpoint, the animals were euthanized with carbon dioxide, and the subcutaneous tumors were isolated and weighed.
The data calculation formulae are shown below: The tumor volume (TV) was calculated using the formula 1/2×axb^2, where a and b represent the length and width measurements of the tumor, respectively.
The tumor growth inhibition rate (%TGITV) was calculated using the formula (1 - TVT/TVC) × 100%, where TVc represents the average tumor volume of the negative control group, and TVT represents the average tumor volume of the treatment group.
The relative tumor volume (RTV) was calculated using the formula Vt/V0, where V0 represents the tumor volume at the time of grouping, and Vt represents the tumor volume at each measurement.

[4] = 25 °C/60% RH, 7 days (long-term)
[5] = 40 °C/75% RH, 7 days (accelerated)
[6] = 60 °C, 7 days (high-temperature, RH < 30%)
[7] = high-temperature and accelerated conditions for 7 days
[8] = long-term conditions for 7 days

| Crystal form [1, 4] | Purity (%) [1, 4] | Crystal form [1, 5] | Purity (%) [1, 5] | Crystal form [1, 6] | Purity (%) [1, 6] | Initial purity (%) [1] | solid-state stability (in words) [1, 7] | solid-state stability (in words) [1, 8] | Equilibrium solubility ([2]; FaSSIF) | Equilibrium solubility ([2]; FeSSIF) | solubility thermodynamic at 24 h ([2]; fassgf) | Equilibrium solubility ([2]; FaSSGF) | SMILES | Relative tumor inhibition (%) Day 28 [3] | Relative tumor volume Day 28 [3] |
| --- | --- | --- | --- | --- | --- | --- | --- | --- | --- | --- | --- | --- | --- | --- | --- |
| Crystal form D | 97.82% | Crystal form D | 97.87% | Crystal form D | 97.74% | 97.79% | remained stable | remained stable | 0.81 | 0.11 | 8440 µg/mL (≈ 15.6 mM) |  | Cc1cc(Nc2ncc3c(=O)n4n(c3n2)-c2cccc(n2)[C@](C)(O)CC/C=C\C4)ccc1OC1CCN(C)CC1 [Crystal form D of compound IE] |  |  |
| Crystal form B | 98.01% | Crystal form B | 98.25% | Crystal form B | 98.24% | 97.97% | remained stable | remained stable | 1.23 | 2.07 |  | >10 | Cc1cc(Nc2ncc3c(=O)n4n(c3n2)-c2cccc(n2)[C@](C)(O)CC/C=C\C4)ccc1OC1CCN(C)CC1 [Crystal form B of compound IE] |  |  |
| Crystal form C | 98.75% | Crystal form C | 98.73% | Crystal form C | 98.72% | 98.74% | remained stable | remained stable | 0.710 | 1.299 |  | >10 | Cc1cc(Nc2ncc3c(=O)n4n(c3n2)-c2cccc(n2)[C@](C)(O)CC/C=C\C4)ccc1OC1CCN(C)CC1 [Crystal form C of compound IE] |  |  |
| Crystal form A | 98.01% | Crystal form E | 98.11% | Crystal forms A+E | 98.06% | 98.08% |  | remained stable | 1.73 | 0.27 |  | >10 | Cc1cc(Nc2ncc3c(=O)n4n(c3n2)-c2cccc(n2)[C@](C)(O)CC/C=C\C4)ccc1OC1CCN(C)CC1 [Crystal form A of compound IE] |  |  |
|  |  |  |  |  |  |  |  |  |  |  |  |  | C=CCn1c(=O)c2cnc(Nc3ccc(N4CCN(C)CC4)cc3)nc2n1-c1cccc(C(C)(C)O)n1 [AZD-1775, reference compound] | 58.28% | 2.18 |
